Measured values reported in patent publication US5659049A, “Antioxidant, antiphospholipase derivatives of ricinoleic acid” (Virginia Commonwealth University, priority 1995, dated 1997).

System: N. naja cobra venom phospholipase
Experiment: In vitro inhibition of N. naja cobra venom phospholipase (FIG. 8)
Format: biochemical

SMILES: CCCCCCC(C/C=C\CCCCCCCC(=O)O)OC(=O)CCCCCCCCC(=O)O (stereo not shown) [RISE-1, Ricinoleic Acid Sebacyl Ester]
- Inhibition of N. naja cobra venom phospholipase: dose related, selective in vitro inhibition
